Assay results from the CheMixHub ionic liquid set.

Assay: xn = mol fraction of the nth substance listed

NC(=O)C[C@H](N)C(=O)O + CCCC[N+](CCCC)(CCCC)Cc1ccccc1.[Cl-] + O
electrical conductivity [S/m], 100 kPa, frequency 0.001 MHz
Details	293.15 K	298.15 K	303.15 K	308.15 K	313.15 K
x1 = 0.0001802, x2 = 1.802e-05	0.0457	0.0482	0.0503	0.052	0.0553
x1 = 0.0001803, x2 = 5.405e-05	0.0516	0.0545	0.0572	0.0607	0.0639
x1 = 0.0001804, x2 = 9.008e-05	0.0589	0.066	0.0748	0.0813	0.0899
x1 = 0.0004504, x2 = 1.801e-05	0.0517	0.0574	0.059	0.0615	0.0657
x1 = 0.0004507, x2 = 5.403e-05	0.0603	0.0634	0.0663	0.0714	0.0753
x1 = 0.000451, x2 = 9.005e-05	0.0728	0.0771	0.0832	0.0889	0.0937
x1 = 0.0007205, x2 = 1.801e-05	0.057	0.0653	0.0683	0.0709	0.0773
x1 = 0.0007209, x2 = 5.402e-05	0.0678	0.072	0.0765	0.0809	0.0884
x1 = 0.0007213, x2 = 9.003e-05	0.0805	0.087	0.0917	0.0967	0.104
x1 = 0.0009904, x2 = 1.8e-05	0.0635	0.0749	0.0776	0.0796	0.0859
x1 = 0.000991, x2 = 5.4e-05	0.0716	0.0812	0.0854	0.0913	0.0954
x1 = 0.0009916, x2 = 9e-05	0.0886	0.0965	0.102	0.104	0.111
x1 = 0.00126, x2 = 1.8e-05	0.0698	0.0826	0.0859	0.0888	0.0951
x1 = 0.001261, x2 = 5.399e-05	0.0783	0.0903	0.0935	0.0999	0.113
x1 = 0.001262, x2 = 8.998e-05	0.102	0.105	0.108	0.112	0.127
x1 = 0.00153, x2 = 1.799e-05	0.086	0.092	0.0943	0.0983	0.11
x1 = 0.001531, x2 = 5.397e-05	0.0934	0.0997	0.105	0.108	0.115
x1 = 0.001532, x2 = 8.995e-05	0.107	0.111	0.116	0.121	0.138

viscosity [mPa·s], 100 kPa
Details	293.15 K	298.15 K	303.15 K	308.15 K	313.15 K
x1 = 0.0001802, x2 = 1.802e-05	0.959	0.919	0.882	–	–
x1 = 0.0001803, x2 = 5.405e-05	0.967	0.926	0.885	–	–
x1 = 0.0001804, x2 = 9.008e-05	0.978	0.935	0.898	–	–
x1 = 0.0004504, x2 = 1.801e-05	0.965	0.925	0.888	0.851	0.798
x1 = 0.0004507, x2 = 5.403e-05	0.974	0.932	0.892	0.858	0.802
x1 = 0.000451, x2 = 9.005e-05	0.985	0.941	0.904	0.862	0.81
x1 = 0.0007205, x2 = 1.801e-05	0.97	0.931	0.894	0.857	0.804
x1 = 0.0007209, x2 = 5.402e-05	0.98	0.938	0.898	0.864	0.809
x1 = 0.0007213, x2 = 9.003e-05	0.992	0.947	0.91	0.868	0.817
x1 = 0.0009904, x2 = 1.8e-05	0.975	0.936	0.899	0.863	0.81
x1 = 0.000991, x2 = 5.4e-05	0.985	0.943	0.904	0.87	0.815
x1 = 0.0009916, x2 = 9e-05	0.997	0.952	0.916	0.874	0.825
x1 = 0.00126, x2 = 1.8e-05	0.98	0.941	0.905	0.869	0.817
x1 = 0.001261, x2 = 5.399e-05	0.99	0.948	0.909	0.877	0.822
x1 = 0.001262, x2 = 8.998e-05	1.003	0.958	0.922	0.88	0.831
x1 = 0.00153, x2 = 1.799e-05	0.984	0.946	0.91	0.875	0.823
x1 = 0.001531, x2 = 5.397e-05	0.995	0.954	0.915	0.883	0.829
x1 = 0.001532, x2 = 8.995e-05	1.008	0.964	0.929	0.887	0.839

CCC(=O)CC + CCCC[n+]1ccn(C)c1.F[P-](F)(F)(F)(F)F
298.15 K, 101.3 kPa
Details	viscosity [mPa·s]
x1 = 0.1927	81.4
x1 = 0.3014	42.7
x1 = 0.5009	13.36
x1 = 0.652	5.36

CCCCCO + CCCC[n+]1ccn(C)c1.N#C[S-]
Details	viscosity [mPa·s]
298.15 K, 101 kPa, x1 = 1	3.37

CCCCCO + CCCC[n+]1ccn(C)c1.O=S(=O)([N-]S(=O)(=O)C(F)(F)F)C(F)(F)F
298 K, 100 kPa
Details	electrical conductivity [S/m]	viscosity [mPa·s]
x2 = 0	–	3.486
x2 = 0.5988	–	20.14
x2 = 0.6	0.5605	–
x2 = 0.6994	–	25.03
x2 = 0.7	0.526	–
x2 = 0.8	0.487	–
x2 = 0.8014	–	31.59
x2 = 0.9	0.4445	–
x2 = 0.9023	–	39

OCCO + CCCC[n+]1ccn(C)c1.O=S(=O)([N-]S(=O)(=O)C(F)(F)F)C(F)(F)F
100 kPa
Details	viscosity [mPa·s]
293.15 K, x2 = 0.2002	34.4
293.15 K, x2 = 0.4015	41.6
298.15 K, x2 = 0.2002	27.2
308.15 K, x2 = 0.2997	18.6
308.15 K, x2 = 0.7003	21.8
313.15 K, x2 = 0.2997	15.6
318.15 K, x2 = 0.2997	13.3
318.15 K, x2 = 0.7003	15.6
323.15 K, x2 = 0.2997	11.5
323.15 K, x2 = 0.7993	14.8
323.15 K, x2 = 0.9	17
328.15 K, x2 = 0.4015	10.4
328.15 K, x2 = 0.6007	11.3
328.15 K, x2 = 0.9	14.7
333.15 K, x2 = 0.2002	8.11
333.15 K, x2 = 0.7993	11.3
338.15 K, x2 = 0.7993	10

OCCO + CCCC[n+]1ccn(C)c1.O=S(=O)([O-])C(F)(F)F
Details	viscosity [mPa·s]
303.15 K, 100 kPa, x2 = 0	13.49

O=C(O)c1cccnc1 + CCCC[n+]1ccn(C)c1.[Br-] + O
viscosity [mPa·s], 100 kPa
Details	293.15 K	298.15 K	303.15 K	308.15 K	313.15 K	318.15 K
x1 = 0.0002684, x2 = 0	1.015	0.903	0.807	0.734	0.666	0.61
x1 = 0.0002711, x2 = 0.0008999	1.035	0.92	0.824	0.754	0.677	0.62
x1 = 0.0002757, x2 = 0.001798	1.06	0.94	0.842	0.759	0.69	0.632
x1 = 0.0002802, x2 = 0.002695	1.071	1.002	0.906	0.796	0.75	0.681
x1 = 0.0005421, x2 = 0	1.018	0.905	0.809	0.737	0.669	0.614
x1 = 0.0005475, x2 = 0.0008997	1.039	0.923	0.827	0.756	0.678	0.621
x1 = 0.0005493, x2 = 0.001798	1.063	0.942	0.843	0.761	0.691	0.633
x1 = 0.0005547, x2 = 0.002694	1.074	1.004	0.908	0.797	0.751	0.682
x1 = 0.0008084, x2 = 0	1.021	0.908	0.812	0.742	0.673	0.617
x1 = 0.0008166, x2 = 0.0008994	1.042	0.925	0.829	0.758	0.68	0.622
x1 = 0.0008283, x2 = 0.001797	1.066	0.945	0.845	0.763	0.693	0.634
x1 = 0.0008364, x2 = 0.002693	1.077	1.007	0.91	0.799	0.753	0.683
x1 = 0.001084, x2 = 0	1.024	0.911	0.814	0.746	0.677	0.62
x1 = 0.001093, x2 = 0.0008992	1.044	0.927	0.83	0.759	0.681	0.624
x1 = 0.001104, x2 = 0.001797	1.069	0.947	0.848	0.765	0.694	0.635
x1 = 0.001114, x2 = 0.002693	1.08	1.009	0.912	0.801	0.754	0.684
x1 = 0.001351, x2 = 0	1.027	0.913	0.816	0.75	0.681	0.624
x1 = 0.001363, x2 = 0.000899	1.047	0.93	0.833	0.762	0.683	0.625
x1 = 0.001377, x2 = 0.001796	1.071	0.95	0.85	0.767	0.696	0.636
x1 = 0.00139, x2 = 0.002692	1.083	1.012	0.915	0.803	0.756	0.686
x1 = 0.001619, x2 = 0	1.03	0.916	0.819	0.754	0.685	0.628
x1 = 0.001635, x2 = 0.0008987	1.05	0.932	0.835	0.763	0.684	0.619
x1 = 0.001652, x2 = 0.001796	1.074	0.952	0.852	0.768	0.697	0.638
x1 = 0.001666, x2 = 0.002691	1.086	1.014	0.917	0.805	0.757	0.687

CCCC[n+]1ccn(C)c1.CS(=O)(=O)[O-] + CCCC[n+]1ccn(C)c1.[Cl-]
Details	viscosity [mPa·s]
353.15 K, 102 kPa, x1 = 0.2	98

CCCCn1cc[n+](C)c1C.O=S(=O)([N-]S(=O)(=O)C(F)(F)F)C(F)(F)F + CCCC[n+]1ccn(C)c1C.F[B-](F)(F)F
Details	electrical conductivity [S/m]
358.15 K, 100 kPa, x1 = 1	1.71
